Test results: the NIST ThermoML archive (doi:10.1016/j.tca.2006.06.022)
Numbers after ± are expanded uncertainties.

Columns and labels:
[1] = Molar enthalpy of transition or fusion; conditions: DSC
[2] = DTA

SMILES	Molar enthalpy of transition or fusion ([1]; Crystal 1) [kcal/mol]	Molar enthalpy of transition or fusion ([1]; Crystal 2) [kcal/mol]	Molar enthalpy of transition or fusion ([1]; Crystal 3) [kcal/mol]	Triple point temperature ([2]; Crystal 1) [K]	Triple point temperature ([2]; Crystal 2) [K]	Triple point temperature ([2]; Crystal 3) [K]	Molar enthalpy of transition or fusion ([1]; Crystal 4) [kcal/mol]	Triple point temperature ([2]; Crystal 4) [K]
CCCCCCCCCCCCCCCCCCCCCCCCCCCCCCCCCCCCCCCCCC [dotetracontane]	39.7 ± 0.813	2.02 ± 0.0574	0.504 ± 0.0287	357.3 ± 0.1	348.6 ± 0.1	344.6 ± 0.1	–	–
CCCCCCCCCCCCCCCCCCCCCCCCCCCCCCCCCCCC [hexatriacontane]	24.5 ± 0.502	6.82 ± 0.153	3.59 ± 0.0884	349.2 ± 0.1	347.1 ± 0.1	346.8 ± 0.1	0.112 ± 0.0208	343.6 ± 0.1
CCCCCCCCCCCCCCCCCCCCCCCCCCCCCCCCCCCCCCCC [tetracontane]	34.4 ± 0.717	2.05 ± 0.0574	0.601 ± 0.0311	354.6 ± 0.1	347.7 ± 0.1	345 ± 0.1	–	–
CCCCCCCCCCCCCCCCCCCCCCCCCCCCCCCCCC [tetratriacontane]	22.9 ± 0.478	11.2 ± 0.239	0.0968 ± 0.0203	346.1 ± 0.1	343.5 ± 0.1	342.8 ± 0.1	–	–
